# Reference: patent US10966426B2, “Herbicidal compositions comprising phenylpyrimidines” (BASF SE, priority 2016, dated 2021)
# Columns and labels:
# Format in all cases: in vivo
# Poa annua = test: greenhouse post-emergence treatment, POAAN; conditions: Poa annua, 480 h, POAAN, 20 DAT
# How it was run: (§1)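 Seeds sown per species in pots of loamy sand; seedlings either grown in place or transplanted days before treatment. Post-emergence spray of water-based liquor at 3–15 cm height. Injury rated 0–100 over 2 to 4 weeks.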
# Alopecurus myosuroides = test: greenhouse post-emergence treatment, ALOMY; conditions: Alopecurus myosuroides, 480 h, ALOMY, 20 DAT
# How it was run: (§2)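 Visual damage score 0–100 (0 = normal growth; 100 = no emergence/above-ground parts destroyed), read 2–4 wk post-treatment. Loamy sand, ~3.0% humus; seedlings grown in place or transplanted days before spraying; water as solvent; 10-25° C. or 20-35° C. per species. Combination expectations by Colby: E=X+Y−(X·Y/100).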
# Papaver rhoeas = test: greenhouse post-emergence treatment, PAPRH; conditions: Papaver rhoeas, 480 h, PAPRH, 20 DAT
# How it was run: as §1
# Avena fatua = test: greenhouse post-emergence treatment, AVEFA; conditions: Avena fatua, 480 h, AVEFA, 20 DAT
# How it was run: as §2
# Matricaria chamomilla = test: greenhouse post-emergence treatment, MATCH; conditions: Matricaria chamomilla, 480 h, MATCH, 20 DAT
# How it was run: as §1
# Lolium multiflorum = test: greenhouse post-emergence treatment, LOLMU; conditions: Lolium multiflorum, 480 h, LOLMU, 20 DAT
# How it was run: as §2
# Polygonum convolvulus = test: greenhouse post-emergence treatment, POLCO; conditions: Fallopia convolvulus, 480 h, 20 DAT, POLCO
# How it was run: as §1
# Setaria viridis = test: greenhouse post-emergence treatment, SETVI; conditions: Setaria viridis, 480 h, SETVI, 20 DAT
# How it was run: as §2
# Bromus sterilis = test: greenhouse post-emergence treatment, BROST; conditions: Bromus sterilis, 480 h, BROST, 20 DAT
# How it was run: as §2
# Brachiaria decumbens = test: greenhouse post-emergence treatment, BRADC; conditions: Urochloa decumbens, 480 h, BRADC, 20 DAT
# How it was run: as §1
# Ambrosia elatior = test: greenhouse post-emergence treatment, AMBEL; conditions: AMBEL, 20 DAT
# How it was run: as §1
# [1] = solo pyridate (WP 45%) 112.5 gai/ha
# [2] = solo pyridate (WP 45%) 225 gai/ha
# [3] = solo pyridate (WP 45%) 450 gai/ha
# [4] = solo pyridate (WP 45%) 900 gai/ha
compound,measurement,setting,value
CCCCCCCCSC(=O)Oc1cc(Cl)nnc1-c1ccccc1 [pyridate],pest or weed control at 112.5 g/ha,Poa annua; [1],0%
same,pest or weed control at 225 g/ha,Poa annua; [2],0%
same,pest or weed control at 450 g/ha,Poa annua; [3],0%
same,pest or weed control at 900 g/ha,Alopecurus myosuroides; [4],20%
same,inhibition at 112.5 g/ha,Alopecurus myosuroides; pyridate solo 112.5 gai/ha,0%
same,inhibition at 225 g/ha,Alopecurus myosuroides; pyridate solo 225 gai/ha,0%
same,inhibition at 450 g/ha,Alopecurus myosuroides; pyridate solo 450 gai/ha,0%
same,inhibition at 900 g/ha,Alopecurus myosuroides; pyridate solo 900 gai/ha,20%
same,pest or weed control at 112.5 g/ha,Papaver rhoeas; [1],0%
same,pest or weed control at 225 g/ha,Papaver rhoeas; [2],10%
same,pest or weed control at 450 g/ha,Papaver rhoeas; [3],50%
same,pest or weed control at 900 g/ha,Papaver rhoeas; [4],70%
same,inhibition at 112.5 g/ha,Papaver rhoeas; pyridate solo 112.5 gai/ha,0%
same,inhibition at 225 g/ha,Papaver rhoeas; pyridate solo 225 gai/ha,10%
same,inhibition at 450 g/ha,Papaver rhoeas; pyridate solo 450 gai/ha,50%
same,inhibition at 900 g/ha,Papaver rhoeas; pyridate solo 900 gai/ha,70%
same,pest or weed control at 112.5 g/ha,Avena fatua; [1],0%
same,pest or weed control at 225 g/ha,Avena fatua; [2],0%
same,pest or weed control at 450 g/ha,Avena fatua; [3],10%
same,pest or weed control at 900 g/ha,Avena fatua; [4],30%
same,inhibition at 112.5 g/ha,Avena fatua; pyridate solo 112.5 gai/ha,0%
same,inhibition at 225 g/ha,Avena fatua; pyridate solo 225 gai/ha,0%
same,inhibition at 450 g/ha,Avena fatua; pyridate solo 450 gai/ha,10%
same,pest or weed control at 112.5 g/ha,Matricaria chamomilla; [1],0%
same,pest or weed control at 225 g/ha,Matricaria chamomilla; [2],0%
same,pest or weed control at 450 g/ha,Matricaria chamomilla; [3],40%
same,inhibition at 112.5 g/ha,Matricaria chamomilla; pyridate solo 112.5 gai/ha,0%
same,inhibition at 225 g/ha,Matricaria chamomilla; pyridate solo 225 gai/ha,0%
same,inhibition at 450 g/ha,Matricaria chamomilla; pyridate solo 450 gai/ha,40%
same,pest or weed control at 112.5 g/ha,Lolium multiflorum; [1],0%
same,pest or weed control at 225 g/ha,Lolium multiflorum; [2],20%
same,inhibition at 112.5 g/ha,Lolium multiflorum; pyridate solo 112.5 gai/ha,0%
same,inhibition at 225 g/ha,Lolium multiflorum; pyridate solo 225 gai/ha,20%
same,inhibition at 112.5 g/ha,Polygonum convolvulus; pyridate solo 112.5 gai/ha,40%
same,inhibition at 225 g/ha,Polygonum convolvulus; pyridate solo 225 gai/ha,50%
same,pest or weed control at 112.5 g/ha,Setaria viridis; [1],15%
same,pest or weed control at 225 g/ha,Setaria viridis; [2],25%
same,pest or weed control at 450 g/ha,Setaria viridis; [3],65%
same,inhibition at 225 g/ha,Setaria viridis; pyridate solo 225 gai/ha,25%
same,inhibition at 450 g/ha,Setaria viridis; pyridate solo 450 gai/ha,65%
same,inhibition at 900 g/ha,Setaria viridis; pyridate solo 900 gai/ha,80%
same,pest or weed control at 112.5 g/ha,Bromus sterilis; [1],0%
same,pest or weed control at 225 g/ha,Bromus sterilis; [2],0%
same,pest or weed control at 900 g/ha,Bromus sterilis; [4],0%
same,pest or weed control at 112.5 g/ha,Brachiaria decumbens; [1],0%
same,pest or weed control at 225 g/ha,Brachiaria decumbens; [2],20%
same,pest or weed control at 450 g/ha,Brachiaria decumbens; [3],20%
same,pest or weed control at 900 g/ha,Brachiaria decumbens; [4],50%
same,inhibition at 112.5 g/ha,Brachiaria decumbens; pyridate solo 112.5 gai/ha,0%
same,inhibition at 225 g/ha,Brachiaria decumbens; pyridate solo 225 gai/ha,20%
same,inhibition at 450 g/ha,Brachiaria decumbens; pyridate solo 450 gai/ha,20%
same,inhibition at 900 g/ha,Brachiaria decumbens; pyridate solo 900 gai/ha,50%
same,% activity,Ambrosia elatior; [1],0%
same,% activity,Ambrosia elatior; [2],10%
same,inhibition at 112.5 g/ha,"Ambrosia elatior; Ambrosia artemisiifolia, 480 h, pyridate solo 112.5 gai/ha",0%
same,inhibition at 225 g/ha,"Ambrosia elatior; Ambrosia artemisiifolia, 480 h, pyridate solo 225 gai/ha",10%
same,inhibition at 450 g/ha,"Ambrosia elatior; Ambrosia artemisiifolia, 480 h, pyridate solo 450 gai/ha",85%
